Measured values: patent EP4702986A1, “POLYPEPTIDE AND USE THEREOF” (Biocells (Beijing) Biotech Co., Ltd., priority 2023, dated 2024)
Numbered stars: 1 amine (or outer) side, 2 acyl side, 3 side chain; on linkers, the order of the positions; unused ones are H or OH. Side chains are listed from the residue outwards. Peptide text beside a SMILES is read from it. * marks the point of attachment. C18 diacid = O=C(O)CCCCCCCCCCCCCCCCC(=O)*; γGlu = O=C(O)[C@H](CCC(=O)[*:2])N[*:1]; Fumaroyl = O=C(O)/C=C/C(=O)*; AEEA = NCCOCCOCC(=O)O

Legend:
rat model of pMACO [1] = assay: Foot fault test in rat model of pMACO; assay type: in vivo, SD rats; details: rat pMCAO; D7 after administration; comparison in words
rat model of pMACO [2] = assay: Rotarod test in rat model of pMACO; assay type: in vivo, SD rats; details: IRL1620 5 µg/Kg, BX34 7 µg/Kg, BX48 5 µg/Kg, administered 3 times (2, 4, 6 hours after modeling), n=10
Text: Male SD rats weighing 280-300 g were used and acclimated for at least 3 days. Focal cerebral ischemia was induced by middle cerebral artery occlusion with a suture method under isoflurane anesthesia. The animals were placed in a secure supine position, and a midline incision was made to expose the right common carotid artery, external carotid artery, and internal carotid artery. A 4.0 monofilament nylon suture was advanced from the external carotid artery toward the internal carotid artery lumen until resistance was felt ( ~ 20 mm), indicating middle cerebral artery occlusion. The nylon filament was allowed to stay in place to create a permanent model of focal cerebral ischemia. Successfully modeled rats were randomly assigned to four groups: a solvent (normal saline) group (n=10), a 7 µg/Kg BX-34 group (n=10), a 5 µg/Kg BX-48 group (n=10), and a 5 µg/Kg IRL1620 group (n=10). Each group was administered once at 2 hours, 4 hours, and 6 hours, respectively, after modeling, for a total of three administrations. Grip strength was measured before administration and at 24 hours and on D3 and D7 after administration. A rotarod test and a foot fault test were performed before administration and at 24 hours and day 7 after administration. During the rotarod test, time and distance were recorded, and ratios of the measurement at 24 hours and the measurement at D7 to the pretest measurement were used as analysis indicators. The specific method for the foot fault test was as follows. The rats were placed on an elevated grid floor (29×29 cm, grid opening: 3 cm^2) for 2 minutes, and the number of foot faults (when a forelimb fell through the grid) and the total steps were recorded. % Foot fault = (the number of forelimb faults/the total number of forelimb steps) × 100.

## CC[C@H](C)[C@H](NC(=O)[C@H](CC(=O)O)NC(=O)[C@H](CCCCNC(=O)COCCOCCNC(=O)COCCOCCNC(=O)CC[C@H](NC(=O)CCCCCCCCCCCCCCCCC(=O)O)C(=O)O)NC(=O)[C@H](Cc1c[nH]cn1)NC(=O)[C@H](C)NC(=O)[C@H](Cc1ccccc1)NC(=O)[C@H](Cc1ccc(O)cc1)NC(=O)[C@@H](NC(=O)[C@H](C)NC(=O)[C@H](CCC(=O)O)NC(=O)[C@H](CCC(=O)O)NC(=O)[C@H](CC(=O)O)NC(=O)/C=C/C(=O)O)C(C)C)C(=O)N[C@H](C(=O)N[C@@H](Cc1c[nH]c2ccccc12)C(=O)O)[C@@H](C)CC [BX-34] (Fumaroyl-DEEAVYFAHK([AEEA-AEEA-γGlu-C18 diacid])DIIW-OH)
Rat model of pMACO [1]
  percentages of foot faults: lower than that of the saline group and the IRL1620 group
Rat model of pMACO [2]; 7D relative to pretest
  Rotarod Test 7D/pretest (%) Distance, m: 49.60%±49.48%
  Rotarod Test 7D/pretest (%) Time, s: 65.5%±29.94%
  Rotarod Test 7D/pretest (%) Velocity: 62.27%±34.12%
Rat model of pMACO [2]; 24h relative to pretest
  Rotarod Test 24h/pretest (%) Distance, m: 28.25%±44.00%
  Rotarod Test 24h/pretest (%) Time, s: 38.34%±38.08%
  Rotarod Test 24h/pretest (%) Velocity: 39.09%±35.03%
